Assay results: PMC12238723, “Phase I Clinical Trial of CVL218, a Novel PARP1/2 Inhibitor, in Patients with Advanced Solid Tumors” (MedComm, 2025)

Tested on: patients with advanced solid tumors
Experiment: Treatment-related adverse events (CTCAE v5.0), phase I dose escalation
Assay type: in vivo
From the text: This study was a single‐arm, dose‐escalation phase I trial conducted in Sun Yat‐sen University Cancer Center in China. This study assessed CVL218 in patients with histologically or cytologically confirmed advanced solid tumors who were in PD after standard therapeutic regimens or lacked standard treatment options. Inclusion criteria included: age 18–75 years; with at least one measurable and evaluable target lesion per Response Evaluation Criteria in Solid Tumors 1.1 (RECIST 1.1); ECOG performance status of 0 or 1; adequate hematological, renal, cardiac, and hepatic functions and a life expectancy ≥12 weeks. Key exclusion criteria included prior usage of PARP inhibitors; allergic to the research drug or its components; with active, unstable systemic diseases or active, uncontrolled infection; a history of other malignancies within 5 years, and pregnant or lactating women.
CVL218 was administered orally, and this dose‐escalation trial included nine dose levels: 100 mg QD (50 mg BID), 200 mg QD (100 mg BID), 400 mg QD (200 mg BID), 700 mg QD (350 mg BID), 1000 mg QD (500 mg BID), 1200 mg QD (600 mg BID), 1400 mg QD (700 mg BID), 1700 mg QD (850 mg BID), and 2000 mg QD (1000 mg BID). Patients enrolled in the study received a single oral dose on the first day, followed by continuous multiple dosing (twice a day taking 12 h apart) after 72 h, with the treatment cycle lasting 4 weeks. The period during which patients received a single dose is designated as cycle 0 (C0), lasting 72 h. After this period, patients begin multiple dosing, referred to as cycle 1 (C1). An initial accelerated titration design was employed for the three lowest dose groups, and the “3+3” design was applied starting with the 300 mg BID cohort.
The primary objectives were to assess safety and tolerability as well as to determine the MTD, DLT, and dose recommended for further study. DLT was defined as any of the following events occurring during cycle 0 (including 72 h wash‐out period after a single dose) and cycle 1 per Common Terminology Criteria for Adverse Events (CTCAE) version 5.0: grade 4 anemia; grade 4 neutropenia; grade 3 neutropenia with fever ≥38.5°C; grade 4 thrombocytopenia; grade 3 thrombocytopenia associated with bleeding; grade ≥2 neurotoxicity; any other grade ≥3 nonhematological toxicities (excluding alopecia). The secondary objectives were to assess the PK and preliminary efficacy of CVL218.
Subjects who received at least one dose of CVL218 with postadministration safety records were included in safety analysis set. Subjects who received at least one dose of CVL218 with at least one evaluable PK parameter were included in PK analysis set. Per‐protocol set were used for efficacy analysis. Descriptive statistics of safety were presented per CTCAE v5.0. The PK parameters T max and T 1/2 were shown as the median (min, max) and mean ± SD, respectively. A two‐sided p < 0.05 was considered to indicate statistical significance. Statistical analysis was performed by using GraphPad prism 8.0.2 and R‐4.3.3.

Question: What does the source list for `CNCc1ccc(-c2cc3cc(F)cc(C(N)=O)c3o2)cc1.Cl` [CVL218]?
Answer: Infusion site pain (50 mg BID, ALL): 0 n (%); WBC count increased (50 mg BID, ALL): 0 n (%); ALT increased (50 mg BID, ≥G3): 0 n (%); AST increased (50 mg BID, ≥G3): 0 n (%); Abdominal distension (50 mg BID, ≥G3): 0 n (%); Abdominal pain (50 mg BID, ≥G3): 0 n (%); Abdominal pain upper (50 mg BID, ≥G3): 0 n (%); Amylase increased (50 mg BID, ≥G3): 0 n (%); Anemia (50 mg BID, ≥G3): 0 n (%); Any AE related to study drug (50 mg BID, ≥G3): 0 n (%); Asthenia (50 mg BID, ≥G3): 0 n (%); Blood creatinine increased (50 mg BID, ≥G3): 0 n (%); Blood system disorders (50 mg BID, ≥G3): 0 n (%); Blood triglycerides increased (50 mg BID, ≥G3): 0 n (%); Blood urea increased (50 mg BID, ≥G3): 0 n (%); Cardiac disorders (50 mg BID, ≥G3): 0 n (%); Chest discomfort (50 mg BID, ≥G3): 0 n (%); Constipation (50 mg BID, ≥G3): 0 n (%); Decreased appetite (50 mg BID, ≥G3): 0 n (%); Diarrhea (50 mg BID, ≥G3): 0 n (%); Dizziness (50 mg BID, ≥G3): 0 n (%); Erectile dysfunction (50 mg BID, ≥G3): 0 n (%); Gastrointestinal disorders (50 mg BID, ≥G3): 0 n (%); General disorders (50 mg BID, ≥G3): 0 n (%); Gingival bleeding (50 mg BID, ≥G3): 0 n (%); Granulocyte count increased (50 mg BID, ≥G3): 0 n (%); Headache (50 mg BID, ≥G3): 0 n (%); Hypoalbuminemia (50 mg BID, ≥G3): 0 n (%); Infusion site pain (50 mg BID, ≥G3): 0 n (%); Laboratory test disorders (50 mg BID, ≥G3): 0 n (%); Limb discomfort (50 mg BID, ≥G3): 0 n (%); Lipase increased (50 mg BID, ≥G3): 0 n (%); Metabolic disorders (50 mg BID, ≥G3): 0 n (%); Musculoskeletal discomfort (50 mg BID, ≥G3): 0 n (%); Musculoskeletal disorders (50 mg BID, ≥G3): 0 n (%); Nausea (50 mg BID, ≥G3): 0 n (%); Nervous system disorders (50 mg BID, ≥G3): 0 n (%); Neutrophil count decreased (50 mg BID, ≥G3): 0 n (%); Neutrophil count increased (50 mg BID, ≥G3): 0 n (%); Palpitations (50 mg BID, ≥G3): 0 n (%); Protein urine present (50 mg BID, ≥G3): 0 n (%); Proteinuria (50 mg BID, ≥G3): 0 n (%); Rash (50 mg BID, ≥G3): 0 n (%); Renal & urinary disorders (50 mg BID, ≥G3): 0 n (%); Renal failure (50 mg BID, ≥G3): 0 n (%); Reproductive disorders (50 mg BID, ≥G3): 0 n (%); Skin disorders (50 mg BID, ≥G3): 0 n (%); Urinary occult blood positive (50 mg BID, ≥G3): 0 n (%); Vomiting (50 mg BID, ≥G3): 0 n (%); WBC count decreased (50 mg BID, ≥G3): 0 n (%); WBC count increased (50 mg BID, ≥G3): 0 n (%); Infusion site pain (100 mg BID, ALL): 0 n (%); WBC count increased (100 mg BID, ALL): 0 n (%); ALT increased (100 mg BID, ≥G3): 0 n (%); AST increased (100 mg BID, ≥G3): 0 n (%); Abdominal distension (100 mg BID, ≥G3): 0 n (%); Abdominal pain (100 mg BID, ≥G3): 0 n (%); Abdominal pain upper (100 mg BID, ≥G3): 0 n (%); Amylase increased (100 mg BID, ≥G3): 0 n (%); Anemia (100 mg BID, ≥G3): 0 n (%); Any AE related to study drug (100 mg BID, ≥G3): 0 n (%); Asthenia (100 mg BID, ≥G3): 0 n (%); Blood creatinine increased (100 mg BID, ≥G3): 0 n (%); Blood system disorders (100 mg BID, ≥G3): 0 n (%); Blood triglycerides increased (100 mg BID, ≥G3): 0 n (%); Blood urea increased (100 mg BID, ≥G3): 0 n (%); Cardiac disorders (100 mg BID, ≥G3): 0 n (%); Chest discomfort (100 mg BID, ≥G3): 0 n (%); Constipation (100 mg BID, ≥G3): 0 n (%); Decreased appetite (100 mg BID, ≥G3): 0 n (%); Diarrhea (100 mg BID, ≥G3): 0 n (%); Dizziness (100 mg BID, ≥G3): 0 n (%); Erectile dysfunction (100 mg BID, ≥G3): 0 n (%); Gastrointestinal disorders (100 mg BID, ≥G3): 0 n (%); General disorders (100 mg BID, ≥G3): 0 n (%); Gingival bleeding (100 mg BID, ≥G3): 0 n (%); Granulocyte count increased (100 mg BID, ≥G3): 0 n (%); Headache (100 mg BID, ≥G3): 0 n (%); Hypoalbuminemia (100 mg BID, ≥G3): 0 n (%); Infusion site pain (100 mg BID, ≥G3): 0 n (%); Laboratory test disorders (100 mg BID, ≥G3): 0 n (%); Limb discomfort (100 mg BID, ≥G3): 0 n (%); Lipase increased (100 mg BID, ≥G3): 0 n (%); Metabolic disorders (100 mg BID, ≥G3): 0 n (%); Musculoskeletal discomfort (100 mg BID, ≥G3): 0 n (%); Musculoskeletal disorders (100 mg BID, ≥G3): 0 n (%); Nausea (100 mg BID, ≥G3): 0 n (%); Nervous system disorders (100 mg BID, ≥G3): 0 n (%); Neutrophil count decreased (100 mg BID, ≥G3): 0 n (%); Neutrophil count increased (100 mg BID, ≥G3): 0 n (%); Palpitations (100 mg BID, ≥G3): 0 n (%); Protein urine present (100 mg BID, ≥G3): 0 n (%); Proteinuria (100 mg BID, ≥G3): 0 n (%); Rash (100 mg BID, ≥G3): 0 n (%); Renal & urinary disorders (100 mg BID, ≥G3): 0 n (%); Renal failure (100 mg BID, ≥G3): 0 n (%); Reproductive disorders (100 mg BID, ≥G3): 0 n (%); Skin disorders (100 mg BID, ≥G3): 0 n (%); Urinary occult blood positive (100 mg BID, ≥G3): 0 n (%); Vomiting (100 mg BID, ≥G3): 0 n (%); WBC count decreased (100 mg BID, ≥G3): 0 n (%); WBC count increased (100 mg BID, ≥G3): 0 n (%); Infusion site pain (200 mg BID, ALL): 1 (100) n (%); WBC count increased (200 mg BID, ALL): 0 n (%); ALT increased (200 mg BID, ≥G3): 0 n (%); AST increased (200 mg BID, ≥G3): 0 n (%); Abdominal distension (200 mg BID, ≥G3): 0 n (%); Abdominal pain (200 mg BID, ≥G3): 0 n (%); Abdominal pain upper (200 mg BID, ≥G3): 0 n (%); Amylase increased (200 mg BID, ≥G3): 0 n (%); Anemia (200 mg BID, ≥G3): 0 n (%); Any AE related to study drug (200 mg BID, ≥G3): 0 n (%); Asthenia (200 mg BID, ≥G3): 0 n (%); Blood creatinine increased (200 mg BID, ≥G3): 0 n (%); Blood system disorders (200 mg BID, ≥G3): 0 n (%); Blood triglycerides increased (200 mg BID, ≥G3): 0 n (%); Blood urea increased (200 mg BID, ≥G3): 0 n (%); Cardiac disorders (200 mg BID, ≥G3): 0 n (%); Chest discomfort (200 mg BID, ≥G3): 0 n (%); Constipation (200 mg BID, ≥G3): 0 n (%); Decreased appetite (200 mg BID, ≥G3): 0 n (%); Diarrhea (200 mg BID, ≥G3): 0 n (%); Dizziness (200 mg BID, ≥G3): 0 n (%); Erectile dysfunction (200 mg BID, ≥G3): 0 n (%); Gastrointestinal disorders (200 mg BID, ≥G3): 0 n (%); General disorders (200 mg BID, ≥G3): 0 n (%); Gingival bleeding (200 mg BID, ≥G3): 0 n (%); Granulocyte count increased (200 mg BID, ≥G3): 0 n (%)
